Read-outs that look alike come from different tables or passages of the source.
How the values were obtained:
Assay type in all cases: cell-based
PATU‐T [1] = test: SRB chemosensitivity assay, PATU‐T cells; settings: read-out: IC50 PATU‐T
Procedure: (§1) Three lines of immortalized PDAC cells were selected as representative phenotypes: mesenchymal (PATU‐T), quasimesenchymal (PANC‐1), and an epithelial clone of SUIT 2 cells (SUIT 2.28). Cells were cultured in noncoated T‐75 and T‐25 flasks under adherent conditions, using 1× DMEM (Gibco, 41,966,029) for PATU‐T and RPMI (Gibco, 21,875,034) for SUIT 2.28 and PANC‐1, both supplemented with 10% NBCS and 1% P/S. Additional employed models were the PDAC3 cells, a primary cell culture, the PSCs, which were immortalized healthy pancreatic cells, and the PATU‐T‐GR, which was a gemcitabine resistant model of PATU‐T. PDAC3 and PSCs were cultivated using complete RPMI medium, while PATU‐T‐GR required complete DMEM medium. For seeding, cells were detached with Trypsin‐EDTA (0.05%) (GibcoTM, 25,300–096) and were consequently counted using the Automated Cell Counter (Luna‐II, Westburg). Cells were then plated on 96‐ or 6‐well plates depending on the planned experiment.
(§2) The Sulforhodamine B (SRB) chemosensitivity assay was used to measure cytotoxicity and cell proliferation post drug treatment. At day 0, 3–6 × 10^3 cells were seeded in a 96‐well plate, depending on the cell line. At day 1, cells were attached and ready to be treated. For the calculation of the IC50, drug dilutions for the compounds 1b, 1c, 1d, 1e, 1g, 1hr, 1i, 1j, and LDC4297 (MedChemExpress, HY‐12,653) were prepared in dilution trays and eight different concentrations were included. These were added in triplicates to the cells, which were then incubated for […] at 37 °C in 5% CO2. During day 1, the control plate was fixed with 50% Trichloroacetic acid (TCA), as intended to be the baseline plate used for the normalization of the data. 72 h post‐treatment, the cells were fixed with TCA, and placed at 4 °C for about 2 h. The plates were then washed with distillated water and left to dry under the hood with ventilation. Subsequently, plates were stained with 0.4% SRB for 15 min and washed with 1% acetic acid to remove excess stain. Once dried again, the protein‐bound SRB was dissolved in 10 mM TRIS, and the plates were placed on a shaker for 10 min per plate. Lastly, the absorbance was measured at 492 nm with a spectrophotometer (Synergy HT, BioTek). The absorbance data obtained were normalized to the day 1 control, and the percentage of cell growth in relation to the control was calculated using the following formula. (1) %Cell growth=Mean OD treatment−Mean OD day0/Mean OD control−Mean OD day0×100
The percentage of proliferation and their respective standard deviations were used to perform statistical analysis in GraphPad Prism software v 10 (GraphPad Software, San Diego, CA). Data were normalized to the day 0 control and to their own untreated 72 h control. These were transformed into logarithmic data, and log(inhibitor) versus response analysis was performed for obtaining the IC50 values per cell lines. Each experiment was conducted in triplicates.

PSC = test: SRB chemosensitivity assay, pancreatic stellate cells (PSC); settings: Fibroblast, read-out: IC50 PSC
Procedure: as §1
as §2, with “The plates were then washed with distillated water and left to dry under the hood with ventilation. Subsequently, plates were stained with 0.4% SRB for 15 min and washed with 1% acetic acid to remove excess stain. Once dried again, the protein‐bound SRB was dissolved in 10 mM TRIS, and the plates were placed on a shaker for 10 min per plate.” left out, “(1) %Cell growth=Mean OD treatment−Mean OD day0/Mean OD control−Mean OD day0×100” left out

PDAC3 [2] = test: Cell cycle analysis (FACS, PI staining), PDAC3; settings: for percentage of cells in the G2‐M phase: untreated 13.3%; for percentage of cells in the G0‐G1 phase: untreated 50.0%; for percentage of cells in the S phase: untreated 36.7%
Procedure: (§3) Modulation of the cell cycle was analyzed via flow cytometry. Cells (5 × 10^5 cells mL^− ^1) were seeded in 6‐well plates and were incubated at 37 °C overnight. Cells were treated with the compounds 1b and 1g at two different concentrations (1 × IC50 and 4 × IC50, according to each cell line) and were again incubated for 24 and 72 h. After treatment, cells were harvested with trypsin and were collected in specific fluorescence‐activated cell sorting (FACS) tubes. Cells were then washed with PBS and centrifuged at 1500 rpm for 5 min, in order to form a pellet. These pellets were fixed in 1 mL of ice‐cold 70% ethanol, added drop by drop during vortex, and placed in the refrigerator at 4 °C. After overnight incubation, the cells were washed twice with PBS, centrifuged (5 min at 1500 rpm), resuspended in 50 µL of RNase (100 µg mL^− ^1), and incubated for 30 min at 37 °C. Finally, 200 µL of propidium iodide solution (PI, 50 µg mL^− ^1) was added, and the cell distribution in the various phases of the cell cycle was analyzed via BD LSRFortessa Cell Analyzer. Data analysis was carried out with FACSdiva software (Becton Dickinson), while cell cycle distribution was determined using FCS express software.

PATU‐T [3] = test: Cell cycle analysis (FACS, PI staining), PATU‐T; settings: for percentage of cells in the G2‐M phase: untreated 18.4%; for percentage of cells in the S phase: untreated 32.5%; for percentage of cells in the G0‐G1 phase: untreated 49.1%
Procedure: as §3

PDAC3 [4] = test: Annexin V apoptosis assay, PDAC3; settings: 1 × IC50
Procedure: In order to investigate the apoptotic properties of the compounds 1b and 1g, the Annexin V apoptosis assay was performed. Annexins are calcium‐dependent phospholipid binding proteins, which are able to bind to phosphatidylserine (PS). The externalization of PS residues on the outer membrane of apoptotic cells can be detected by Annexin V.
For this assay, cells were seeded in a 96‐well plate at a concentration of 13.5 × 10^3 and 4.5 × 10^3 /well respectively for the 24 and 72 h experiments. The next day cells were treated with compounds 1b and 1g at 1 × IC50 and 4 × IC50 concentrations. The apoptosis assay was performed 24 and 72 h post‐treatment following the BD Pharmingen FITC Annexin V Apoptosis Detection Kit I (BD Biosciences, 556,547). The supernatant was aspirated, and cells were washed with phosphate‐buffered saline (PBS). Cells were consequently treated with binding buffer BBA + Annexin V (1:100) and were incubated in the dark at RT for 10 min. The supernatant was removed, and the cells were washed with BBA (1:10). Cells were then incubated with BBA + PI (1:100) and were immediately read with the spectrophotometer at ex. 485/ em. 535. Two different programs were used to read the Annexin V and the PI absorbance. Lastly, 100 µL of PBS were added to each well before being fixed with TCA. This was followed by the SRB assay to standardize fluorescence data according to cell count. Data were exported into GraphPad Prism 10 for statistical analysis.

SUIT 2.28 = test: Cell cycle analysis (FACS, PI staining), SUIT 2.28; settings: for percentage of cells in the G0‐G1 phase: untreated 24.6%; for percentage of cells in the G2‐M phase: untreated 32.7%; for percentage of cells in the S phase: untreated 42.7%
Procedure: as §3

Nc1ncnc2cc(-c3c[nH]c4ccc(Br)cc34)nn12 [Compound 1b, 7‐(5‐Bromo‐1H‐indol‐3‐yl)pyrazolo[1,5‐a][1,3,5]triazin‐4‐amine]
IC50 (PATU‐T [1]; SRB, 72 h of treatment, average ± SEM, triplicate): 1.4 ± 0.2 µM | IC50 (PSC; SRB, nontumorous immortalized pancreatic fibroblasts, average ± SEM, triplicate): 6.6 ± 0.7 µM | percentage of cells in the G2‐M phase (PDAC3 [2]; PDAC3, 1 × IC50, 24 h): 11.1% | percentage of cells in the G0‐G1 phase (PDAC3 [2]; PDAC3, 1 × IC50, 24 h): 44.0% | percentage of cells in the G2‐M phase (PDAC3 [2]; PDAC3, 4 × IC50, 24 h): 6.9% | percentage of cells in the S phase (PDAC3 [2]; PDAC3, 4 × IC50, 24 h): 51.6% | percentage of cells in the G0‐G1 phase (PDAC3 [2]; PDAC3, 4 × IC50, 24 h): 41.6% | percentage of cells in the G2‐M phase (PATU‐T [3]; 1 × IC50, 24 h): 14.9% | percentage of cells in the S phase (PATU‐T [3]; 1 × IC50, 24 h): 49.6% | percentage of cells in the G0‐G1 phase (PATU‐T [3]; 1 × IC50, 24 h): 35.5% | percentage of cells in the G2‐M phase (PATU‐T [3]; 4 × IC50, 24 h): 10.1% | percentage of cells in the S phase (PATU‐T [3]; 4 × IC50, 24 h): 60.0% | percentage of cells in the G0‐G1 phase (PATU‐T [3]; 4 × IC50, 24 h): 30.0% | apoptotic index (PDAC3 [4]; PDAC3, 24 h): significant increase in apoptotic index | apoptotic index (PDAC3 [4]; PDAC3, 72 h): continued to show a significant rise | percentage of cells in the G0‐G1 phase (SUIT 2.28; SUIT 2.28, 1 × IC50, 24 h): 41.0% | percentage of cells in the G2‐M phase (SUIT 2.28; SUIT 2.28, 1 × IC50, 24 h): 18.7% | percentage of cells in the S phase (SUIT 2.28; SUIT 2.28, 1 × IC50, 24 h): 40.3% | percentage of cells in the G0‐G1 phase (SUIT 2.28; SUIT 2.28, 4 × IC50, 24 h): 41.6% | percentage of cells in the G2‐M phase (SUIT 2.28; SUIT 2.28, 4 × IC50, 24 h): 21.6% | percentage of cells in the S phase (SUIT 2.28; SUIT 2.28, 4 × IC50, 24 h): 34.9%

Cn1cc(-c2cc3ncnc(N)n3n2)c2cc(Br)ccc21 [Compound 1g, 7‐(5‐Bromo‐1‐methyl‐1H‐indol‐3‐yl)pyrazolo[1,5‐a][1,3,5]triazin‐4‐amine]
IC50 (PATU‐T [1]; 72 h): 1.3 ± 0.1 µM | IC50 (PSC): 5.3 ± 1.1 µM | percentage of cells in the G2‐M phase (PDAC3 [2]; PDAC3, 1 × IC50, 24 h): 13.3% | percentage of cells in the S phase (PDAC3 [2]; PDAC3, 1 × IC50, 24 h): 30.8% | percentage of cells in the G0‐G1 phase (PDAC3 [2]; PDAC3, 1 × IC50, 24 h): 55.9% | percentage of cells in the G2‐M phase (PDAC3 [2]; PDAC3, 4 × IC50, 24 h): 9.8% | percentage of cells in the S phase (PDAC3 [2]; PDAC3, 4 × IC50, 24 h): 30.4% | percentage of cells in the G0‐G1 phase (PDAC3 [2]; PDAC3, 4 × IC50, 24 h): 59.8% | percentage of cells in the G2‐M phase (PATU‐T [3]; 1 × IC50, 24 h): 17.7% | percentage of cells in the S phase (PATU‐T [3]; 1 × IC50, 24 h): 35.0% | percentage of cells in the G0‐G1 phase (PATU‐T [3]; 1 × IC50, 24 h): 47.4% | percentage of cells in the G2‐M phase (PATU‐T [3]; 4 × IC50, 24 h): 15.2% | percentage of cells in the S phase (PATU‐T [3]; 4 × IC50, 24 h): 39.0% | percentage of cells in the G0‐G1 phase (PATU‐T [3]; 4 × IC50, 24 h): 45.7% | apoptotic index (PDAC3 [4]; PDAC3, 24 h): significant increase in apoptotic index | apoptotic index (PDAC3 [4]; PDAC3, 72 h): continued to show a significant rise | percentage of cells in the G0‐G1 phase (SUIT 2.28; SUIT 2.28, 1 × IC50, 24 h): 36.2% | percentage of cells in the G2‐M phase (SUIT 2.28; SUIT 2.28, 1 × IC50, 24 h): 25.9% | percentage of cells in the S phase (SUIT 2.28; SUIT 2.28, 1 × IC50, 24 h): 37.8% | percentage of cells in the G0‐G1 phase (SUIT 2.28; SUIT 2.28, 4 × IC50, 24 h): 40.3% | percentage of cells in the G2‐M phase (SUIT 2.28; SUIT 2.28, 4 × IC50, 24 h): 25.4% | percentage of cells in the S phase (SUIT 2.28; SUIT 2.28, 4 × IC50, 24 h): 34.2%
